SMILES strings stand for the structures. Bridge positions count the residues as written; N and C are the ends. Peptide text beside a SMILES is read from it. * marks the point of attachment. Pentanoyl = CCCCC(=O)*

The data set is described as follows: toxicity in vivo, LD50 after intracerebroventricular injection. The note with it: mouse, icv or intrathecal, 20 g C57/BL6 mice. Here is the method: Groups of six to eight mice per dose were injected with 5 μl peptide solution containing 0.1% (w/v) bovine serum albumin and 0.9% (w/v) NaCl. The LD50 values are set out in Table 5.
Turning to `CC[C@H](C)[C@@H]1NC(=O)[C@H](CCCCN)NC(=O)[C@@H](NC(=O)[C@H](CCCCN)NC(=O)[C@@H](NC(=O)[C@H](CC(N)=O)NC(=O)[C@@H](NC(=O)[C@@H](NC(=O)[C@@H](N)C(C)C)[C@@H](C)CC)[C@@H](C)CC)C(C)C)CSSC[C@@H]2NC(=O)[C@H](CCCCN)NC(=O)CNC(=O)[C@H](Cc3ccccc3)NC(=O)[C@H](CCCNC(=N)N)NC(=O)[C@H](CCSC)NC(=O)CNC(=O)[C@H](C)NC(=O)[C@H](CC(=O)O)NC(=O)[C@H](CCCCN)NC(=O)[C@@H]3CSSC[C@@H](C(=O)N[C@H](C(=O)N4CCC[C@H]4C(=O)N[C@@H](CCCCN)C(=O)O)[C@@H](C)O)NC(=O)[C@H](Cc4c[nH]cn4)NC(=O)[C@H](CSSC[C@H](NC(=O)[C@H](CCC(N)=O)NC(=O)[C@H](CCCNC(=N)N)NC(=O)[C@H](CO)NC1=O)C(=O)N[C@@H](CC(C)C)C(=O)N[C@@H](CCCCN)C(=O)N1CCC[C@H]1C(=O)N3)NC(=O)[C@H](CCCCN)NC(=O)CNC(=O)[C@H](CC(N)=O)NC(=O)[C@H](CCSC)NC2=O` (H-VIINVKCKISRQCLKPCKDAGMRFGKCMNGKCHCTPK-OH; disulfide 7-27, 13-32, 17-34), the LD50 came out at 0.003 mg/kg. On to `CC[C@H](C)[C@@H]1NC(=O)[C@H](CCCCN)NC(=O)[C@@H](NC(=O)[C@H](CCCCN)NC(=O)[C@@H](NC(=O)[C@H](CC(N)=O)NC(=O)[C@@H](NC(=O)[C@@H](NC(=O)[C@@H](NC(=O)CN)C(C)C)[C@@H](C)CC)[C@@H](C)CC)C(C)C)CSSC[C@@H]2NC(=O)[C@H](CCCCN)NC(=O)CNC(=O)[C@H](Cc3ccccc3)NC(=O)[C@H](CCCNC(=N)N)NC(=O)[C@H](CCSC)NC(=O)CNC(=O)[C@H](C)NC(=O)[C@H](CC(=O)O)NC(=O)[C@H](CCCCN)NC(=O)[C@@H]3CSSC[C@@H](C(=O)O)NC(=O)[C@H](Cc4c[nH]cn4)NC(=O)[C@H](CSSC[C@H](NC(=O)[C@H](CCC(N)=O)NC(=O)[C@H](CCCNC(=N)N)NC(=O)[C@H](CO)NC1=O)C(=O)N[C@@H](CC(C)C)C(=O)N[C@@H](CCCCN)C(=O)N1CCC[C@H]1C(=O)N3)NC(=O)[C@H](CCCCN)NC(=O)CNC(=O)[C@H](CC(N)=O)NC(=O)[C@H](CCSC)NC2=O` (H-GVIINVKCKISRQCLKPCKDAGMRFGKCMNGKCHC-OH; disulfide 8-28, 14-33, 18-35), for which the LD50 was found to be 0.8 mg/kg. Regarding `CC[C@H](C)[C@@H]1NC(=O)[C@H](CCCCN)NC(=O)[C@@H](NC(=O)[C@H](CCCCN)NC(=O)[C@@H](NC(=O)[C@H](CC(N)=O)NC(=O)[C@@H](NC(=O)[C@@H](NC(=O)[C@@H](NC(=O)CN)C(C)C)[C@@H](C)CC)[C@@H](C)CC)C(C)C)CSSC[C@@H]2NC(=O)[C@H](CCCCN)NC(=O)CNC(=O)[C@H](Cc3ccccc3)NC(=O)[C@H](CCCNC(=N)N)NC(=O)[C@H](CCSC)NC(=O)CNC(=O)[C@H](C)NC(=O)[C@H](CCCCN)NC(=O)[C@H](CCCCN)NC(=O)[C@@H]3CSSC[C@@H](C(=O)N[C@H](C(=O)N4CCC[C@H]4C(=O)N[C@@H](CCCCN)C(=O)O)[C@@H](C)O)NC(=O)[C@H](C)NC(=O)[C@H](CSSC[C@H](NC(=O)[C@H](CCC(N)=O)NC(=O)[C@H](CCCNC(=N)N)NC(=O)[C@H](CO)NC1=O)C(=O)N[C@@H](CC(C)C)C(=O)N[C@@H](CCC(=O)O)C(=O)N1CCC[C@H]1C(=O)N3)NC(=O)[C@H](CCCCN)NC(=O)CNC(=O)[C@H](CC(N)=O)NC(=O)[C@H](CCSC)NC2=O` [[A^34]-OsK1] (H-GVIINVKCKISRQCLEPCKKAGMRFGKCMNGKCACTPK-OH; disulfide 8-28, 14-33, 18-35), the LD50 amounted to 0.01 mg/kg. In the case of `CCCCC(=O)NCC(=O)N[C@H](C(=O)N[C@H](C(=O)N[C@H](C(=O)N[C@@H](CC(N)=O)C(=O)N[C@H](C(=O)N[C@@H](CCCCN)C(=O)N[C@H]1CSSC[C@@H]2NC(=O)[C@H](CCCCN)NC(=O)CNC(=O)[C@H](Cc3ccccc3)NC(=O)[C@H](CCCNC(=N)N)NC(=O)[C@H](CCSC)NC(=O)CNC(=O)[C@H](C)NC(=O)[C@H](CC(=O)O)NC(=O)[C@H](CCCCN)NC(=O)[C@@H]3CSSC[C@@H](C(=O)N[C@H](C(=O)N4CCC[C@H]4C(=O)N[C@@H](CCCCN)C(=O)O)[C@@H](C)O)NC(=O)[C@H](Cc4c[nH]cn4)NC(=O)[C@H](CSSC[C@H](NC(=O)[C@H](CCC(N)=O)NC(=O)[C@H](CCCNC(=N)N)NC(=O)[C@H](CO)NC(=O)[C@H]([C@@H](C)CC)NC(=O)[C@H](CCCCN)NC1=O)C(=O)N[C@@H](CC(C)C)C(=O)N[C@@H](CCCCN)C(=O)N1CCC[C@H]1C(=O)N3)NC(=O)[C@H](CCCCN)NC(=O)CNC(=O)[C@H](CC(N)=O)NC(=O)[C@H](CCSC)NC2=O)C(C)C)[C@@H](C)CC)[C@@H](C)CC)C(C)C` (Pentanoyl-GVIINVKCKISRQCLKPCKDAGMRFGKCMNGKCHCTPK-OH; disulfide 8-28, 14-33, 18-35) it was 0.016 mg/kg.

Take `CC[C@H](C)[C@@H]1NC(=O)[C@H](CCCCN)NC(=O)[C@@H](NC(=O)[C@H](CCCCN)NC(=O)[C@@H](NC(=O)[C@H](CC(N)=O)NC(=O)[C@@H](NC(=O)[C@@H](NC(=O)[C@@H](NC(=O)CN)C(C)C)[C@@H](C)CC)[C@@H](C)CC)C(C)C)CSSC[C@@H]2NC(=O)[C@H](CCCCN)NC(=O)CNC(=O)[C@H](CC(N)=O)NC(=O)[C@H](CCCNC(=N)N)NC(=O)[C@H](CCSC)NC(=O)CNC(=O)[C@H](C)NC(=O)[C@H](CC(=O)O)NC(=O)[C@H](CCCCN)NC(=O)[C@@H]3CSSC[C@@H](C(=O)N[C@H](C(=O)N4CCC[C@H]4C(=O)N[C@@H](CCCCN)C(=O)O)[C@@H](C)O)NC(=O)[C@H](Cc4c[nH]cn4)NC(=O)[C@H](CSSC[C@H](NC(=O)[C@H](CCC(N)=O)NC(=O)[C@H](CCCNC(=N)N)NC(=O)[C@H](CO)NC1=O)C(=O)N[C@@H](CC(C)C)C(=O)N[C@@H](CCCCN)C(=O)N1CCC[C@H]1C(=O)N3)NC(=O)[C@H](CCCCN)NC(=O)CNC(=O)[C@H](CC(N)=O)NC(=O)[C@H](CCSC)NC2=O` (H-GVIINVKCKISRQCLKPCKDAGMRNGKCMNGKCHCTPK-OH; disulfide 8-28, 14-33, 18-35): the LD50 amounted to 0.0115 mg/kg. On to `CC[C@H](C)[C@@H]1NC(=O)[C@H](CCCCN)NC(=O)[C@@H](NC(=O)[C@H](CCCCN)NC(=O)[C@@H](NC(=O)[C@H](CC(N)=O)NC(=O)[C@@H](NC(=O)[C@@H](NC(=O)[C@@H](N)C(C)C)[C@@H](C)CC)[C@@H](C)CC)C(C)C)CSSC[C@@H]2NC(=O)[C@H](CCCCN)NC(=O)CNC(=O)[C@H](Cc3ccccc3)NC(=O)[C@H](CCCNC(=N)N)NC(=O)[C@H](CCSC)NC(=O)CNC(=O)[C@H](C)NC(=O)[C@H](CC(=O)O)NC(=O)[C@H](CCCCN)NC(=O)[C@@H]3CSSC[C@@H](C(=O)N[C@H](C(=O)N4CCC[C@H]4C(=O)N[C@@H](CCCCN)C(N)=O)[C@@H](C)O)NC(=O)[C@H](Cc4c[nH]cn4)NC(=O)[C@H](CSSC[C@H](NC(=O)[C@H](CCC(N)=O)NC(=O)[C@H](CCCNC(=N)N)NC(=O)[C@H](CO)NC1=O)C(=O)N[C@@H](CC(C)C)C(=O)N[C@@H](CCCCN)C(=O)N1CCC[C@H]1C(=O)N3)NC(=O)[C@H](CCCCN)NC(=O)CNC(=O)[C@H](CC(N)=O)NC(=O)[C@H](CCSC)NC2=O` (H-VIINVKCKISRQCLKPCKDAGMRFGKCMNGKCHCTPK-NH2; disulfide 7-27, 13-32, 17-34), for which the LD50 is 0.0045 mg/kg.

Consider `CC[C@H](C)[C@@H]1NC(=O)[C@H](CCCCN)NC(=O)[C@@H](NC(=O)[C@H](CCCCN)NC(=O)[C@@H](NC(=O)[C@H](CC(N)=O)NC(=O)[C@@H](NC(=O)[C@@H](NC(=O)[C@@H](N)[C@@H](C)O)[C@@H](C)CC)[C@@H](C)CC)C(C)C)CSSC[C@@H]2NC(=O)[C@H](CCCCN)NC(=O)CNC(=O)[C@H](Cc3ccccc3)NC(=O)[C@H](CCCNC(=N)N)NC(=O)[C@H](CCSC)NC(=O)CNC(=O)[C@H](C)NC(=O)[C@H](CC(=O)O)NC(=O)[C@H](CCCCN)NC(=O)[C@@H]3CSSC[C@@H](C(=O)N[C@H](C(=O)N4CCC[C@H]4C(=O)N[C@@H](CCCCN)C(=O)O)[C@@H](C)O)NC(=O)[C@H](Cc4c[nH]cn4)NC(=O)[C@H](CSSC[C@H](NC(=O)[C@H](CCC(N)=O)NC(=O)[C@H](CCCNC(=N)N)NC(=O)[C@H](CO)NC1=O)C(=O)N[C@@H](CC(C)C)C(=O)N[C@@H](CCCCN)C(=O)N1CCC[C@H]1C(=O)N3)NC(=O)[C@H](CCCCN)NC(=O)CNC(=O)[C@H](CC(N)=O)NC(=O)[C@H](CCSC)NC2=O` (H-TIINVKCKISRQCLKPCKDAGMRFGKCMNGKCHCTPK-OH; disulfide 7-27, 13-32, 17-34), for which the LD50 was found to be 0.003 mg/kg.

The term LD50 denotes the dose expected to kill half of the subjects tested.

These data come from patent publication US7745575B1 (Cellpep Pharma Inc., priority 2004, dated 2010).
